Assays:
[1] = test system: Primary bovine adrenal cortex capillary endothelial (BCE) cells; test: chemotaxis assay of synthetic peptides (Table 2); type: cell-based; settings: for Inhibition of chemotaxis: 100 ng/ml peptide, FGF-2 10 ng/ml, BCE cells, 5 h; for inhibition of chemotaxis, stated in words: chemotaxis assay of table 2
Experimental: Synthetic peptides were produced by Multiple Peptide Systems, San Diego Calif., USA, and dissolved in 1 mM ZnCl2/0.5xPBS at a stock concentration of 1 mg/ml. The sequences of the peptides were as follows:
A migration assay was performed in a modified Boyden chamber as described earlier (Auerbach et al., 1991) using micropore polycarbonate filters (8 μm thick, 8 μm pore) coated with type-1 collagen solution at 100 μg/ml (Vitrogen 100, Collagen Corp). Primary bovine adrenal cortex capillary endothelial (BCE) cells were trypsinized and resuspended at a concentration of 7.5×10^5 cells/ml in Dulbecco's modified essential medium (Invitrogen) containing 0.25% BSA and Trasylol at 1000 KIE. The cell suspension was placed in the upper chamber. In the lower chamber below the filter was placed medium containing 0.25% BSA and when indicated, 10 ng/ml fibroblast growth factor (FGF-2; Peprotech). Recombinant HRGP produced in 293 cells, alternatively, synthetic peptides, all at a final concentration of 100 ng/ml (or as indicated), was placed in both chambers either alone or in combination with FGF-2. After 5 h at 37° C., the medium was removed and cells sticking to the filter were fixed in pure methanol and stained with Giemsa stain. The number of cells on the lower side of the filter was counted using an image analysis software (Easy Image Analysis) from TeknoOptik, Sweden. All samples were analyzed in series of at least six parallel wells for each treatment.

[2] = test system: endothelial cells; test: chemotaxis of endothelial cells towards FGF-2, truncated HRGP proteins; type: cell-based; settings: recombinant truncated forms of HRGP
Experimental: (§1) A migration assay was performed in a modified Boyden chamber as described earlier (Auerbach et al., 1991) using micropore polycarbonate filters (8 μm thick, 8 μm pore) coated with type-1 collagen solution at 100 μg/ml (Vitrogen 100, Collagen Corp). BCE, PAE/FGFR-1 or NIH 3T3 cells were preincubated or not with HRGP (100 ng/ml) for 30 min, trypsinised and resuspended at a concentration of 7.5×10^5 cells/ml in Dulbecco's modified essential medium (Invitrogen) containing 0.25% BSA and Trasylol at 1000 KIE. FGF-2 and VEGF-A was used at 5 ng/ml, HRGP and the protein C inhibitor (PCI) at 100 ng/ml and BSA at 0.25%. After 5 h at 37° C., migrated cells were stained with Giemsa and counted using an image analysis software (Easy Image Analysis) from Tekno Optik AB, Sweden. All samples were analysed in at least six parallel wells for each treatment.
To determine which part of HRGP was responsible for the anti-angiogenic effect, recombinant truncated forms of the protein were produced (FIG. 5A). Truncated versions containing the C-terminal part of HRGP, but lacking an intact N-terminus, were not possible to produce, maybe due to instability.

[3] = test system: primary BCE cells; test: chemotaxis (migration) assay in modified Boyden chamber, BCE cells; type: cell-based, bovine; settings: 100 ng/ml protein, FGF-2 5 ng/ml, 5 h
Experimental: The porcine aortic endothelial (PAE) cell line overexpressing FGF receptor-1 (FGFR-1) (Wennström et al 1992) was cultured in Ham's F12/10% fetal bovine serum (FCS) and NIH 3T3 murine fibroblasts were cultured in Dulbecco's modified medium (DMEM)/10% newborn calf serum (NCS). F12, DMEM and serum were bought from Life Technologies. Primary bovine adrenal cortex capillary endothelial (BCE) cells were cultured on gelatin-coated dishes in DMEM/10% NCS and 2 ng/ml FGF-2 (Boehringer Mannheim). For chemotaxis assays, both PAE and NIH 3T3 cells were serum-starved over night in 0.1% BSA and BCE cells in 0.5% NCS. Human embryonic kidney (HEK) 293-EBNA cells were cultured in DMEM/10% FCS. Approximately every second month they were given 0.25 mg/ml G418 (Calbiochem) to ensure positive selection of the EBNA-1 expressing cells.
as §1

[4] = test system: T241 fibrosarcoma cells; test: fibrosarcoma tumour growth in mice (HRGP); type: in vivo; settings: 14 days
Experimental: Animal work was carried out at the local animal facility and was approved by the Uppsala University board of animal experimentation and thus performed according to the UKCCCR guidelines for the welfare of animals in experimental neoplasia (Workman et al (1988)). The mice were anesthetized with isoflurane (Forene; Abbott) during all manipulations. Female, 5 week old, C57BL6/1 mice (Mollegard/Bomhultgard, Denmark) were injected with 0.5×10^6 T241 fibrosarcoma cells subcutaneously (s.c.) into the left flank. Animals carrying palpable tumours were randomized (n=7-10 animals/treatment group) and received treatment with vehicle (PBS), 4 mg/kg/day of pHRGP or 5 mg/kg/day of human IgG or His-HRGP, given as daily subcutaneous injections in the right flank. The tumours were measured with a caliper once a day, in a blind procedure, and volumes were calculated by the formula […]. When the tumours reached the upper limit of 2 cm^3, the mice were sacrificed. Three animals in each group were perfused with 4% paraformaldehyde in PBS pH 7.4. Tumours were embedded in paraffin according to standard histological procedures and sectioned at […] thickness.
C57/bl6 mice were inoculated subcutaneously with T241 fibrosarcoma cells on their left flank and when the tumours were palpable (after 4-6 days), a daily treatment was initiated with HRGP or control (PBS; FIG. 2A, or human IgG; FIG. 2B). Endostatin was included in one study for comparison (FIG. 2B). The treatment was given as subcutaneous injections in the right flank until the size of the control tumours reached the upper limit of […] (11 days; FIG. 2A, 14 days; FIG. 2B). Injections with both pHRGP (4 mg/kg/day) and His-HRGP (5 mg/kg/day) led to a drastic reduction in tumour growth and at the time of sacrifice, the size of the tumours was reduced by 67% (FIG. 2A) and 61% (FIG. 2B) respectively, compared to control-treated animals. Endostatin treatment (25 mg/kg/day) lacked significant inhibitory effect on tumour growth in this model (32% decrease).

Ac-AHHPHEHDTH-NH2 [Pep 13A]
Inhibition of chemotaxis [1]: +

DLHPHEQHPHEHDTHG [Pep 11A]
Inhibition of chemotaxis [1]: − (as compared to Pep 8 and Pep 11A) | inhibition of chemotaxis, stated in words [1]: not to be effective

DLHPHKHHSHEQHPHG [Pep 8]
Inhibition of chemotaxis [1]: − (as compared to Pep 8 and Pep 11A) | inhibition of chemotaxis, stated in words [1]: not to be effective

AHHPHEHDTHRQHPHG [Pep 10]
Inhibition of chemotaxis [1]: +

Ac-AHHPHEHDTHRQHPH-NH2 [Pep 12A]
Inhibition of chemotaxis [1]: +

Ac-EHDTH-NH2 [Pep 15A]
Inhibition of chemotaxis [1]: +

KHHSHEQHPHGHHPHAHHPHEHDTHG [Pep 9A]
Inhibition of chemotaxis [1]: +

B1: His 5: recombinant His/Pro-rich domain (central region) of human HRGP (protein, listed as Homo sapiens)
chain: HLGHPFHWGGHERSSTTKPPFKPHGSRDHHHPHKPHEHGPPPPPDERDHSHGPPLPQGPPPLLPMSCSSCQHATFGTNGAQRHSHNNNSSDLHPHKHHSHEQHPHGHHPHAHHPHEHDTHRQHPHGHHPHGHHPHGHHPHGHHPHGHHPHC
inhibition of chemotaxis of endothelial cells towards FGF-2 [2]: inhibited chemotaxis | inhibition of chemotaxis of endothelial cells towards FGF-2 ([2]; listed as central region (His/Pro-rich domain) of human HRGP): inhibited chemotaxis as potently as the mature protein | inhibition of chemotaxis of endothelial cells towards FGF-2 ([2]; listed as central region of human HRGP): inhibit chemotaxis

B2: PCI: plasma protein of approximately the same mass as HRGP, specificity control (protein, UniProt P05154 26-406, looked up)
Plasma serine protease …: EMKKRVEDLHVGATVAPSSRRDFTFDLYRALASAAPSQSIFFSPVSISMSLAMLSLGAGSSTKMQILEGLGLNLQKSSEKELHRGFQQLLQELNQPRDGFQLSLGNALFTDLVVDLQDTFVSAMKTLYLADTFPTNFRDSAGAMKQINDYVAKQTKGKIVDLLKNLDSNAVVIMVNYIFFKAKWETSFNHKGTQEQDFYVTSETVVRVPMMSREDQYHYLLDRNLSCRVVGVPYQGNATALFILPSEGKMQQVENGLSEKTLRKWLKMFKKRQLELYLPKFSIEGSYQLEKVLPSLGISNVFTSHADLSGISNHSNIQVSEMVHKAVVEVDESGTRAAAATGTIFTFRSARLNSQRLVFNRPFLMFIVDNNILFLGKVNRP
FGF-2-induced chemotaxis of BCE cells [3]: no effect

B3: His 4: recombinant truncated version of HRGP that covers the complete central region (protein, listed as Homo sapiens)
chain: VSPTDCSAVEPEAEKALDLINKRRRDGYLFQLLRIADAHLDRVENTTVYYLVLDVQESDCSVLSRKYWNDCEPPDSRRPSEIVIGQCKVIATRHSHESQDLRVIDFNCTTSSVSSALANTKDSPVLIDFFEDTERYRKQANKALEKYKEENDDFASFRVDRIERVARVRGGEGTGYFVDFSVRNCPRHHFPRHPNVFGFCRADLFYDVEALDLESPKNLVINCEVFDPQEHENINGVPPHLGHPFHWGGHERSSTTKPPFKPHGSRDHHHPHKPHEHGPPPPPDERDHSHGPPLPQGPPPLLPMSCSSCQHATFGTNGAQRHSHNNNSSDLHPHKHHSHEQHPHGHHPHAHHPHEHDTHRQHPHGHHPHGHHPHGHHPHGHHPHGHHPHC
inhibition of chemotaxis of endothelial cells towards FGF-2 [2]: did not inhibit endothelial cell chemotaxis | inhibition of chemotaxis of endothelial cells towards FGF-2 ([2]; listed as His4): failure of His4 to inhibit endothelial cell chemotaxis

B4: Endostatin: anti-angiogenic factor included in one tumour study for comparison (protein, UniProt P39060 1572-1754, looked up)
Endostatin: HSHRDFQPVLHLVALNSPLSGGMRGIRGADFQCFQQARAVGLAGTFRAFLSSRLQDLYSIVRRADRAAVPIVNLKDELLFPSWEALFSGSEGPLKPGARIFSFDGKDVLRHPTWPQKSVWHGSDPNGRRLTESYCETWRTEAPSATGQASSLLGGRLLGQSAASCHHAYIVLCIENSFMTASK
modifications: Endostatin
notes: anti-angiogenic factor included in one tumour study for comparison
decrease of tumour growth ([4]; 25 mg/kg/day, comparison): 32%

B5: His-HRGP: recombinant full-length HRGP produced in HEK-293-EBNA cells with a His-tag (protein)
chain: VSPTDCSAVEPEAEKALDLINKRRRDGYLFQLLRIADAHLDRVENTTVYYLVLDVQESDCSVLSRKYWNDCEPPDSRRPSEIVIGQCKVIATRHSHESQDLRVIDFNCTTSSVSSALANTKDSPVLIDFFEDTERYRKQANKALEKYKEENDDFASFRVDRIERVARVRGGEGTGYFVDFSVRNCPRHHFPRHPNVFGFCRADLFYDVEALDLESPKNLVINCEVFDPQEHENINGVPPHLGHPFHWGGHERSSTTKPPFKPHGSRDHHHPHKPHEHGPPPPPDERDHSHGPPLPQGPPPLLPMSCSSCQHATFGTNGAQRHSHNNNSSDLHPHKHHSHEQHPHGHHPHAHHPHEHDTHRQHPHGHHPHGHHPHGHHPHGHHPHGHHPHCHDFQDYGPCDPPPHNQGHCCHGHGPPPGHLRRRGPGKGPRPFHCRQIGSVYRLPPLRKGEVLPLPEANFPSFPLPHHKHPLKPDNQPFPQSVSESCPGKFKSGFPQVSMFFTHTFPK
modifications: left off: small tags and cut ends
notes: recombinant full-length HRGP produced in HEK-293-EBNA cells with a His-tag
reduction of tumour size compared to control-treated animals at sacrifice ([4]; 5 mg/kg/day s.c. daily, control human IgG): 61%
